EC30 data for 28 molecules are collected here from patent US10758534B2 (Vertex Pharmaceuticals Incorporated, priority 2014, dated 2020).

In the experiment the target is T1, F508del (Homo sapiens, UniProt P13569, DEL508-508).
T1 construct: expressed in transfected cells
Put plainly: Protocol 1: membrane potential optical assay (FLIPR III, voltage sensing dye), identification of potentiator compounds. It is filed as cell-based. To be noted: Table 3, compounds of Table 1. The essentials: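 Mouse NIH 3T3 fibroblasts stably expressing F508del, temperature-corrected at 27 °C for 24 h, pretreated with compound, then loaded with voltage-sensing redistribution dye. Forskolin was added in a single step with a chloride gradient (chloride-free gluconate bath; Bath Solution #1 HEPES pH 7.4). Membrane-potential fluorescence read on FLIPR III.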

T1 sequence (P13569 with tags, fused parts or gaps DEL508-508): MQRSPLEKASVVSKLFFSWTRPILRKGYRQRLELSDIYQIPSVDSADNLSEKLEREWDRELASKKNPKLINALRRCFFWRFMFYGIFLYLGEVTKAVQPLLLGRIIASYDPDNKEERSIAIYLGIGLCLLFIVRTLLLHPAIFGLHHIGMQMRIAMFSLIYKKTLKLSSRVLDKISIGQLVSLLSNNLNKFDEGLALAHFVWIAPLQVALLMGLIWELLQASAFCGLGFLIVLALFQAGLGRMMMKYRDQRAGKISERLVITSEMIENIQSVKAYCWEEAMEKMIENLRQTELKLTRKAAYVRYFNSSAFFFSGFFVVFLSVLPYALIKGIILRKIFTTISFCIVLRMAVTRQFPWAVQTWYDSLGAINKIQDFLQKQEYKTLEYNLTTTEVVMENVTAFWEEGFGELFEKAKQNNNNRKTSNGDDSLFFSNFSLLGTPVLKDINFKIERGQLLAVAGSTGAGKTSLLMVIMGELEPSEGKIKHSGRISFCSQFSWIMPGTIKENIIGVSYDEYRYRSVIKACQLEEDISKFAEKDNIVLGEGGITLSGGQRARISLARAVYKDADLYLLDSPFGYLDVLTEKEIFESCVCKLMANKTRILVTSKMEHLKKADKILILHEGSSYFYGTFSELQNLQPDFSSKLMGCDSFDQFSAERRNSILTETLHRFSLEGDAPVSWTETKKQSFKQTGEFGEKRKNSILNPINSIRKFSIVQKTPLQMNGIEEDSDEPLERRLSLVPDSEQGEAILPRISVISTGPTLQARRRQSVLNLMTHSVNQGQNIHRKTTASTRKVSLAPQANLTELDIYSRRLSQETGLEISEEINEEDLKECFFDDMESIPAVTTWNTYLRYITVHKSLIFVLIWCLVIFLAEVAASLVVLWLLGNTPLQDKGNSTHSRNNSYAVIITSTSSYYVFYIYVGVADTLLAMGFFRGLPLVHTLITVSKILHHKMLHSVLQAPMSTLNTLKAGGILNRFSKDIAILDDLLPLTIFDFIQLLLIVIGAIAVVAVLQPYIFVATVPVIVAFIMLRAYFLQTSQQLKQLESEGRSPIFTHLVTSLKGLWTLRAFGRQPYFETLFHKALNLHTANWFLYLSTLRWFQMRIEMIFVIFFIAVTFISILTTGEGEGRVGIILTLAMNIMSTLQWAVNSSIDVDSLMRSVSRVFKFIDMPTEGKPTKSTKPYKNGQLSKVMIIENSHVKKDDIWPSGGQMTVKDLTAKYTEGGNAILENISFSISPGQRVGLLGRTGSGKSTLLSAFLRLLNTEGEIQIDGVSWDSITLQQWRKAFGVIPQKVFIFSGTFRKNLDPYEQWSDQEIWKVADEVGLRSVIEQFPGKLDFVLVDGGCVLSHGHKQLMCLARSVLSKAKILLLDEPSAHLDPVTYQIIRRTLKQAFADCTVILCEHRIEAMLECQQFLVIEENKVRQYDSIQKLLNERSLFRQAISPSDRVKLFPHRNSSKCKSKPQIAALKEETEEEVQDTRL

In the case of `C[C@@H]1CC[C@H](C)N1c1nc(-c2ccc(OC3CC3)nc2)ccc1C(=O)NS(=O)(=O)c1cccc(N)n1` [Compound 1125, N-[(6-amino-2-pyridyl)sulfonyl]-6-[6-(cyclopropoxy)-3-pyridyl]-2-[(2S,5R)-2,5-dimethylpyrrolidin-1-yl]pyridine-3-carboxamide], the EC30 result is “++ (“++” means between 3 uM and 10 uM)”.
Under `CC(C)COc1cc(F)cc(-c2ccc(C(=O)NS(=O)(=O)c3cccc(N)n3)c(NCC3(CC(C)(C)O)CC3)n2)c1` [Compound 1723, N-[(6-amino-2-pyridyl)sulfonyl]-6-(3-fluoro-5-isobutoxy-phenyl)-2-[[1-(2-hydroxy-2-methyl-propyl)cyclopropyl]methylamino]pyridine-3-carboxamide] stands “+++ (“+++” means <3 uM)”.
For the molecule `CC(C)COc1cc(F)cc(-c2ccc(C(=O)NS(=O)(=O)c3cccc(N)n3)c(N3CCCC34CC4)n2)c1` [Compound 1333, N-[(6-amino-2-pyridyl)sulfonyl]-2-(7-azaspiro[2.4]heptan-7-yl)-6-(3-fluoro-5-isobutoxy-phenyl)pyridine-3-carboxamide], the EC30 result is reported as “+++ (“+++” means <3 uM)”.
Under `CC(=O)N1CC=C(c2ccc(C(=O)NS(=O)(=O)c3cccc(N)n3)c(Oc3c(C)cc(C)cc3C)n2)CC1` [Compound 1649, 6-(1-acetyl-3,6-dihydro-2H-pyridin-4-yl)-N-[(6-amino-2-pyridyl)sulfonyl]-2-(2,4,6-trimethylphenoxy)pyridine-3-carboxamide] stands “++ (“++” means between 3 uM and 10 uM)”; under `Cc1cc(C)c(CN2CCc3ccccc3CC2C(=O)NS(=O)(=O)c2cccc(NCCO)n2)c(C)c1` (stereo not shown) [Compound 838, N-[[6-(2-hydroxyethylamino)-2-pyridyl]sulfonyl]-3-[(2,4,6-trimethylphenyl)methyl]-1,2,4,5-tetrahydro-3-benzazepine-4-carboxamide], “++ (“++” means between 3 uM and 10 uM)”.
On to `Cc1cc(C)c(CN2CCc3ccccc3CC2C(=O)NS(=O)(=O)c2ccccn2)c(C)c1` (stereo not shown) [Compound 1093, N-(2-pyridylsulfonyl)-3-[(2,4,6-trimethylphenyl)methyl]-1,2,4,5-tetrahydro-3-benzazepine-4-carboxamide], for which the EC30 result was “++ (“++” means between 3 uM and 10 uM)”.
As to `Cc1cc(C)c(Oc2nc(-c3cn(C)nc3C(F)(F)F)ccc2C(=O)NS(=O)(=O)c2cccc(N)n2)c(C)c1` [Compound 812, N-[(6-amino-2-pyridyl)sulfonyl]-6-[1-methyl-3-(trifluoromethyl)pyrazol-4-yl]-2-(2,4,6-trimethylphenoxy)pyridine-3-carboxamide], the EC30 entry was “++ (“++” means between 3 uM and 10 uM)”.
Under `Cc1cc(C)c(Oc2ncc(-c3ccccc3C)cc2C(=O)NS(=O)(=O)c2cccc(N)n2)c(C)c1` [Compound 817, N-[(6-amino-2-pyridyl)sulfonyl]-5-(o-tolyl)-2-(2,4,6-trimethylphenoxy)pyridine-3-carboxamide] stands “+++ (“+++” means <3 uM)”.
Consider `CC(C)Oc1ccc(-c2ccc(C(=O)NS(=O)(=O)c3cccc(N)n3)c(N3CCC(C(F)(F)F)CC3)n2)cn1` [Compound 1043, N-[(6-amino-2-pyridyl)sulfonyl]-6-(6-isopropoxy-3-pyridyl)-2-[4-(trifluoromethyl)-1-piperidyl]pyridine-3-carboxamide], for which the EC30 result was “+++ (“+++” means <3 uM)”.
Consider `CC(c1ccccc1)n1nc(C(C)(C)C)cc1C(=O)NS(=O)(=O)c1cccc(N)c1` (stereo not shown) [Compound 799, N-(3-aminophenyl)sulfonyl-5-ter-butyl-2-(1-phenylethyl)pyrazole-3-carboxamide], for which the EC30 entry is recorded as “+ (“+” means greater than 10 uM)”.
Take `CC1CN(c2ncccc2C(=O)NS(=O)(=O)c2cccc(N3CCN(c4ccccn4)CC3)n2)C(C)(C)C1` (stereo not shown) [Compound 1816, N—[[6-[4-(2-pyridyl)piperazin-1-yl]-2-pyridyl]sulfonyl]-2-(2,2,4-trimethylpyrrolidin-1-yl)pyridine-3-carboxamide]: the EC30 result is given as “+++ (“+++” means <3 uM)”.
Under `CC(C)COc1cc(F)cc(-c2ccc(C(=O)NS(=O)(=O)c3cccc(N)n3)c(N3CC[C@H](C)[C@H](C)C3)n2)c1` [Compound 1724] stands “+++ (“+++” means <3 uM)”; under `CCOc1cncc(-c2ccc(C(=O)NS(=O)(=O)c3cccc(N)n3)c(N3CC(C)CC3(C)C)n2)n1` (stereo not shown) [Compound 1252, N-[(6-amino-2-pyridyl)sulfonyl]-6-(6-ethoxypyrazin-2-yl)-2-(2,2,4-trimethylpyrrolidin-1-yl)pyridine-3-carboxamide], “+++ (“+++” means <3 uM)”.
Regarding `CCC1CCCN(c2nc(-c3ccc(OC(C)C)nc3)ccc2C(=O)NS(=O)(=O)c2cccc(N)n2)C1` (stereo not shown) [Compound 1023, N-[(6-amino-2-pyridyl)sulfonyl]-2-(3-ethyl-1-piperidyl)-6-(6-isopropoxy-3-pyridyl)pyridine-3-carboxamide], the EC30 entry is “+++ (“+++” means <3 uM)”.
In the case of `Cc1cc(C)c(Oc2nc(-c3cccc4c3OCO4)ccc2C(=O)NS(=O)(=O)c2cccc(N)n2)c(C)c1` [Compound 974, N-[(6-amino-2-pyridyl)sulfonyl]-6-(1,3-benzodioxol-4-yl)-2-(2,4,6-trimethylphenoxy)pyridine-3-carboxamide] it was “+++ (“+++” means <3 uM)”.
Under `CCC1CCC(c2ccc(C(=O)NS(=O)(=O)c3cccc(N)n3)c(Oc3c(C)cc(C)cc3C)n2)CC1` (stereo not shown) [Compound 1475, N-[(6-amino-2-pyridyl)sulfonyl]-6-(4-ethylcyclohexyl)-2-(2,4,6-trimethylphenoxy)pyridine-3-carboxamide] stands “+++ (“+++” means <3 uM)”.
In the case of `COc1cncc(-c2ccc(C(=O)NS(=O)(=O)c3cccc(N)n3)c(Oc3c(C)cc(C)cc3C)n2)c1` [Compound 1115, N-[(6-amino-2-pyridyl)sulfonyl]-6-(5-methoxy-3-pyridyl)-2-(2,4,6-trimethylphenoxy)pyridine-3-carboxamide] it was “+ (“+” means greater than 10 uM)”; in that of `C[C@@H]1CN(c2nc(-c3ccc(F)c(F)c3)ccc2C(=O)NS(=O)(=O)c2cccnc2N)C(C)(C)C1` [Compound 1854, N-[(2-amino-3-pyridyl)sulfonyl]-6-(3,4-difluorophenyl)-2-[(4S)-2,2,4-trimethylpyrrolidin-1-yl]pyridine-3-carboxamide], “+++ (“+++” means <3 uM)”.
As to `Cc1ccc(-c2ccc(C(=O)NS(=O)(=O)c3cccc(N)n3)c(Oc3c(C)cc(C)cc3C)n2)nc1` [Compound 1290, N-[(6-amino-2-pyridyl)sulfonyl]-6-(5-methyl-2-pyridyl)-2-(2,4,6-trimethylphenoxy)pyridine-3-carboxamide], the EC30 result was “+++ (“+++” means <3 uM)”.
In the case of `CC(C)COc1cc(F)cc(-c2ccc(C(=O)NS(=O)(=O)c3cccc(N)n3)c(OCC3(F)COC3)n2)c1` [Compound 1053, N-[(6-amino-2-pyridyl)sulfonyl]-6-(3-fluoro-5-isobutoxy-phenyl)-2-[(3-fluorooxetan-3-yl)methoxy]pyridine-3-carboxamide], the EC30 result is “++ (“++” means between 3 uM and 10 uM)”.
Under `CCc1ccccc1-c1cnc(Oc2c(C)cc(C)cc2C)c(C(=O)NS(=O)(=O)c2cccc(N)n2)c1` [Compound 945, N-[(6-amino-2-pyridyl)sulfonyl]-5-(2-ethylphenyl)-2-(2,4,6-trimethylphenoxy)pyridine-3-carboxamide] stands “+++ (“+++” means <3 uM)”; under `CC1CN(c2ncccc2C(=O)NS(=O)(=O)c2cccc(OC(C)c3ccccc3)n2)C(C)(C)C1` (stereo not shown) [Compound 1917, N—[[6-(1-phenylethoxy)-2-pyridyl]sulfonyl]-2-(2,2,4-trimethylpyrrolidin-1-yl)pyridine-3-carboxamide], “+++ (“+++” means <3 uM)”; under `COc1cccc(-c2ccc(C(=O)NS(=O)(=O)c3ccn[nH]3)c(N3[C@H](C)CC[C@@H]3C)n2)n1` [Compound 1236, 2-[(2S,5R)-2,5-dimethylpyrrolidin-1-yl]-6-(6-methoxy-2-pyridyl)-N-(1H-pyrazol-5-ylsulfonyl)pyridine-3-carboxamide], “++ (“++” means between 3 uM and 10 uM)”.
In the case of `CC(C)CCOc1cccc(-c2cnc(N3CC(C)CC3(C)C)c(C(=O)NS(=O)(=O)c3cccc(N)n3)c2)c1` (stereo not shown) [Compound 1894, N-[(6-amino-2-pyridyl)sulfonyl]-5-(3-isopentyloxyphenyl)-2-(2,2,4-trimethylpyrrolidin-1-yl)pyridine-3-carboxamide] it was “+++ (“+++” means <3 uM)”; in that of `CC[C@H](C)Oc1ncc(-c2ccc(C(=O)NS(=O)(=O)c3cccc(N)n3)c(N3C[C@@H](C)CC3(C)C)n2)cc1C` [Compound 1728, N-[(6-amino-2-pyridyl)sulfonyl]-6-[5-methyl-6-[(1 S)-1-methylpropoxy]-3-pyridyl]-2-[(4S)-2,2,4-trimethylpyrrolidin-1-yl]pyridine-3-carboxamide], “+++ (“+++” means <3 uM)”; in that of `CC(C)COc1cc(-c2ccc(C(=O)NS(=O)(=O)c3cccc(N)n3)c(N3[C@H](C)CC[C@@H]3C)n2)ccc1Cl` [Compound 1197, N-[(6-amino-2-pyridyl)sulfonyl]-6-(4-chloro-3-isobutoxy-phenyl)-2-[(2S,5R)-2,5-dimethylpyrrolidin-1-yl]pyridine-3-carboxamide], “+++ (“+++” means <3 uM)”.
On to `C[C@@H]1CN(c2nc(-c3ccc(F)cc3)ccc2C(=O)NS(=O)(=O)c2ccc[nH]c2=O)C(C)(C)C1` [Compound 1807, 6-(4-fluorophenyl)-N-[(2-oxo-1H-pyridin-3-yl)sulfonyl]-2-[(4S)-2,2,4-trimethylpyrrolidin-1-yl]pyridine-3-carboxamide], for which the EC30 entry is given as “+++ (“+++” means <3 uM)”.
In the case of `CCn1cc(-c2ccc(C(=O)NS(=O)(=O)c3cccc(N)n3)c(Oc3c(C)cc(C)cc3C)n2)cn1` [Compound 1312, N-[(6-amino-2-pyridyl)sulfonyl]-6-(1-ethylpyrazol-4-yl)-2-(2,4,6-trimethylphenoxy)pyridine-3-carboxamide] it was “++ (“++” means between 3 uM and 10 uM)”.
